ChEMBL document CHEMBL3991601, “The target landscape of clinical kinase drugs” (Science, 2017)
The source made the active and inactive calls.

Experiments:
[1] = target: Structural maintenance of chromosomes protein 2 (Homo sapiens, UniProt O95347)
[2] = target: T1, Non-receptor tyrosine-protein kinase TNK1 (Homo sapiens, UniProt Q13470)
T1 sequence (Q13470 whole entry): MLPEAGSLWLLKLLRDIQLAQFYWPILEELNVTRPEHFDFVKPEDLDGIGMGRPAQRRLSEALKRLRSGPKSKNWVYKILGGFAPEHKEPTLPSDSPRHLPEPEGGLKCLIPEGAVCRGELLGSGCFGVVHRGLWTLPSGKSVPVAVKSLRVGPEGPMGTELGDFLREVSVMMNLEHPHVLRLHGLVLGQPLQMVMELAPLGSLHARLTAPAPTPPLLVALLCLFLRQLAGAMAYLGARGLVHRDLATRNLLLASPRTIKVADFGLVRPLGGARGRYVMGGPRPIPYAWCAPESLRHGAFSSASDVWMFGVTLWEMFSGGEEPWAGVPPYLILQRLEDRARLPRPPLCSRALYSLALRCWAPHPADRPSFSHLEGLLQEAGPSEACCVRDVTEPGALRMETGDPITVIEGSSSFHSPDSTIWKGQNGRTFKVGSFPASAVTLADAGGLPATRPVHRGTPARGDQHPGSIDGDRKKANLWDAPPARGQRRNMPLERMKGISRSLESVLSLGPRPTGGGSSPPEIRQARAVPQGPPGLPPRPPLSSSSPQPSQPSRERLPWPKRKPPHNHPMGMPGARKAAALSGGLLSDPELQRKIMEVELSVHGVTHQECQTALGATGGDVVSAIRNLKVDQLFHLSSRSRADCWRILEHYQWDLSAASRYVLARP

[3] = target: Tyrosine-protein kinase Fyn (Homo sapiens, UniProt P06241)
Sequence of Tyrosine-protein kinase Fyn (P06241 whole entry): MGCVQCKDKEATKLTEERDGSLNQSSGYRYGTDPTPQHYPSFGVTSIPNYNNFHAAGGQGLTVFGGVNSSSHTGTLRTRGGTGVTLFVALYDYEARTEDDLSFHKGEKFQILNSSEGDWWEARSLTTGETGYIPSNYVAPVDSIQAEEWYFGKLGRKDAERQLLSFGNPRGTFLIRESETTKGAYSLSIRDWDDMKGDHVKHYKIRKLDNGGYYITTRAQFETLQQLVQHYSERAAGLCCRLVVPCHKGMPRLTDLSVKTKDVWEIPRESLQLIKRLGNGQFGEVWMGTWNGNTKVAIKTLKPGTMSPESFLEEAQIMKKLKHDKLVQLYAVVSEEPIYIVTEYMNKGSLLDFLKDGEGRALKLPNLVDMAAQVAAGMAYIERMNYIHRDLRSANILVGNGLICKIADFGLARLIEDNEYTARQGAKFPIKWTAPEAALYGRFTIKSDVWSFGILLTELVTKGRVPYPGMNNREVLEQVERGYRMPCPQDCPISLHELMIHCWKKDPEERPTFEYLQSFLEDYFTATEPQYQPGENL

[4] = target: T2, Ras-related protein Rab-27A (Homo sapiens, UniProt P51159)
T2 sequence (P51159 whole entry): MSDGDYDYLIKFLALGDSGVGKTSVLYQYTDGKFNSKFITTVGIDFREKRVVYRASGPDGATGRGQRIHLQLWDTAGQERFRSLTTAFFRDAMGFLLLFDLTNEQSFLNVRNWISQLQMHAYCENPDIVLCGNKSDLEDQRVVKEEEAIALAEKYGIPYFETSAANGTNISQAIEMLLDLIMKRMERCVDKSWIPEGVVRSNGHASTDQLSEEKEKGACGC

[5] = target: STE20-like serine/threonine-protein kinase (Homo sapiens, UniProt Q9H2G2)
Sequence of STE20-like serine/threonine-protein kinase (Q9H2G2 whole entry): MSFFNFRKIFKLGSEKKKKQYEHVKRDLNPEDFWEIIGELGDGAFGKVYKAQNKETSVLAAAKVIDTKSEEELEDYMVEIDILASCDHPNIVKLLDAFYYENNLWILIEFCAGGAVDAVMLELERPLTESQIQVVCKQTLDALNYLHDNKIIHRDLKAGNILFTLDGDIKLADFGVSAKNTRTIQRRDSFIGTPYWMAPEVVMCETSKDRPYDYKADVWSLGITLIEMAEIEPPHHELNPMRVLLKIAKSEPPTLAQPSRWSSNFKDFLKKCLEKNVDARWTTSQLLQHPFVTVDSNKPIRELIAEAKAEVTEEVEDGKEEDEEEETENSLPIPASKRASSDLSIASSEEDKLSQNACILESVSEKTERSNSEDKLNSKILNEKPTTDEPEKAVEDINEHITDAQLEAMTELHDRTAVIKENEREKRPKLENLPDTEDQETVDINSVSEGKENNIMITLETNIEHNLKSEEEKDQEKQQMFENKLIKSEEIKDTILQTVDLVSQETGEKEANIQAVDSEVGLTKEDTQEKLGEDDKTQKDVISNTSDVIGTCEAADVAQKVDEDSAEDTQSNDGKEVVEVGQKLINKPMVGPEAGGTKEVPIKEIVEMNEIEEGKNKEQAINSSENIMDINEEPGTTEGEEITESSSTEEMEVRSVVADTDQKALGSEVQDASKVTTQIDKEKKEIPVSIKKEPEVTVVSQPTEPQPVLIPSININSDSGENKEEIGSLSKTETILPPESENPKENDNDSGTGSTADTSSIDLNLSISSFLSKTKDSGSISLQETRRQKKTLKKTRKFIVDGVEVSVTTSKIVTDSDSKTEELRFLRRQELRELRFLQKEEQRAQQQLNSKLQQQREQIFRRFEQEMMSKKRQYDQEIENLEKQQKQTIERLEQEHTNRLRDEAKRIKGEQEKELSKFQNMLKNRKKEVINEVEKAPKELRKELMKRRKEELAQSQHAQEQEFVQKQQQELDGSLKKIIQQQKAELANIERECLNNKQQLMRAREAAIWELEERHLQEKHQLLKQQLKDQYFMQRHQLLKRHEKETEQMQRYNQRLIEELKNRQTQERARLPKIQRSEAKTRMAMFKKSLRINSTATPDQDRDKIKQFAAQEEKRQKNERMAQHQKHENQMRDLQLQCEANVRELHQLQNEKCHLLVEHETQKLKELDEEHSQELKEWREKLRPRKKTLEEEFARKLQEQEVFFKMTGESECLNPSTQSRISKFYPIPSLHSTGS

[6] = target: 26S proteasome regulatory subunit 6B (Homo sapiens, UniProt P43686)
Sequence of 26S proteasome regulatory subunit 6B (P43686 whole entry): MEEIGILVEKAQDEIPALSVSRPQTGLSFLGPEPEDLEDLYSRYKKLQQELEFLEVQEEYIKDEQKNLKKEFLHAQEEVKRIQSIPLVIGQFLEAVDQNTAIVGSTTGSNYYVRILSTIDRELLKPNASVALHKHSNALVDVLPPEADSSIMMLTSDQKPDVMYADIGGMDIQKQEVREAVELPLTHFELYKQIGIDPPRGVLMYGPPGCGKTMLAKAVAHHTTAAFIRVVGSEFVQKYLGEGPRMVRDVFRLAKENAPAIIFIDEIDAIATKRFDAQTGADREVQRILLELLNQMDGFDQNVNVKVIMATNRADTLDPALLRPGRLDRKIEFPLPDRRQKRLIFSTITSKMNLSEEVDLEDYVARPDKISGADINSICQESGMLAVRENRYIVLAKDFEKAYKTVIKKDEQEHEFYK

[7] = target: T3, Succinate--CoA ligase [ADP-forming] subunit beta, mitochondrial (Homo sapiens, UniProt Q9P2R7)
T3 sequence (Q9P2R7 whole entry): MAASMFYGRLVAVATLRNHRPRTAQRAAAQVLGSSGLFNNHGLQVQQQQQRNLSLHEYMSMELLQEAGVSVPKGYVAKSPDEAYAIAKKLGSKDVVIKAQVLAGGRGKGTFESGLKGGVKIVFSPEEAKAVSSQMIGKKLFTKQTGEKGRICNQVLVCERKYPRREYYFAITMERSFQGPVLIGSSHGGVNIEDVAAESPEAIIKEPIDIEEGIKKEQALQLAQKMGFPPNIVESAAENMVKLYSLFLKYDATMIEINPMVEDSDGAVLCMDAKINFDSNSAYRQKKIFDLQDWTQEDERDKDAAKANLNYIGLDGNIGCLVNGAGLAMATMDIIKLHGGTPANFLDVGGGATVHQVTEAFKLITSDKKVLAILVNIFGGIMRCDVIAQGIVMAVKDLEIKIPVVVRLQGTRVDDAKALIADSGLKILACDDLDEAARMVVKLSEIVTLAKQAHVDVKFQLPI

Ephrin type-A receptor 5 = Ephrin type-A receptor 5 (Homo sapiens, UniProt P54756)
Sequence of Ephrin type-A receptor 5 (P54756 whole entry): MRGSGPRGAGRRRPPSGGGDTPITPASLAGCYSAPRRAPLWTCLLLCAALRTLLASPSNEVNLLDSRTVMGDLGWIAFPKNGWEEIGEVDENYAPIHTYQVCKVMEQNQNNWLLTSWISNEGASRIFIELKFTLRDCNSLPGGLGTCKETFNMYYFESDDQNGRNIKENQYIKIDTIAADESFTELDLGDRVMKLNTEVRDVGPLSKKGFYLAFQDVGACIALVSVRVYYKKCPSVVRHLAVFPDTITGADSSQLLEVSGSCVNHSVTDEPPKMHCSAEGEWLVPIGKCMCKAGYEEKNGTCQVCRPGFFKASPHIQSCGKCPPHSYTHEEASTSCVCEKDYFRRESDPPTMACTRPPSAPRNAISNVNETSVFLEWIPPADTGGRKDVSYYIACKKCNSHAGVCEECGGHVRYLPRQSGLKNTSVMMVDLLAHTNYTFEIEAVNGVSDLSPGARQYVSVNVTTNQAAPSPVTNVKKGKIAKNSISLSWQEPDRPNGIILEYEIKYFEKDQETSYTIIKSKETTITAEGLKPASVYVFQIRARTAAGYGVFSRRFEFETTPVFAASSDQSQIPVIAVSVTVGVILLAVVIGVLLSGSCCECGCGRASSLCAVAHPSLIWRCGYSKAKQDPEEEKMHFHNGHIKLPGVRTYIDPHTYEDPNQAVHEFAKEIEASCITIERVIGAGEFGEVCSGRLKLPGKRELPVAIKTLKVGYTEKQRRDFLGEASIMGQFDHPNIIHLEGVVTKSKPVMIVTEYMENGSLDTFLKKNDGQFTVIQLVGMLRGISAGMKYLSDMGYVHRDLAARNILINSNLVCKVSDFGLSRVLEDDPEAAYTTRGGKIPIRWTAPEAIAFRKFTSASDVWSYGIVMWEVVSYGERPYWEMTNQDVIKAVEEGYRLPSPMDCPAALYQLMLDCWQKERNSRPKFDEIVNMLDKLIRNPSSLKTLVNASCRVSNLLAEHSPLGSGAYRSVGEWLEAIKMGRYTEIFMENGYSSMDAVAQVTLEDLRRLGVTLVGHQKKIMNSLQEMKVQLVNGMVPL

[8] = target: Serine/threonine-protein kinase/endoribonuclease IRE2 (Homo sapiens, UniProt Q76MJ5)
Sequence of Serine/threonine-protein kinase/endoribonuclease IRE2 (Q76MJ5 whole entry): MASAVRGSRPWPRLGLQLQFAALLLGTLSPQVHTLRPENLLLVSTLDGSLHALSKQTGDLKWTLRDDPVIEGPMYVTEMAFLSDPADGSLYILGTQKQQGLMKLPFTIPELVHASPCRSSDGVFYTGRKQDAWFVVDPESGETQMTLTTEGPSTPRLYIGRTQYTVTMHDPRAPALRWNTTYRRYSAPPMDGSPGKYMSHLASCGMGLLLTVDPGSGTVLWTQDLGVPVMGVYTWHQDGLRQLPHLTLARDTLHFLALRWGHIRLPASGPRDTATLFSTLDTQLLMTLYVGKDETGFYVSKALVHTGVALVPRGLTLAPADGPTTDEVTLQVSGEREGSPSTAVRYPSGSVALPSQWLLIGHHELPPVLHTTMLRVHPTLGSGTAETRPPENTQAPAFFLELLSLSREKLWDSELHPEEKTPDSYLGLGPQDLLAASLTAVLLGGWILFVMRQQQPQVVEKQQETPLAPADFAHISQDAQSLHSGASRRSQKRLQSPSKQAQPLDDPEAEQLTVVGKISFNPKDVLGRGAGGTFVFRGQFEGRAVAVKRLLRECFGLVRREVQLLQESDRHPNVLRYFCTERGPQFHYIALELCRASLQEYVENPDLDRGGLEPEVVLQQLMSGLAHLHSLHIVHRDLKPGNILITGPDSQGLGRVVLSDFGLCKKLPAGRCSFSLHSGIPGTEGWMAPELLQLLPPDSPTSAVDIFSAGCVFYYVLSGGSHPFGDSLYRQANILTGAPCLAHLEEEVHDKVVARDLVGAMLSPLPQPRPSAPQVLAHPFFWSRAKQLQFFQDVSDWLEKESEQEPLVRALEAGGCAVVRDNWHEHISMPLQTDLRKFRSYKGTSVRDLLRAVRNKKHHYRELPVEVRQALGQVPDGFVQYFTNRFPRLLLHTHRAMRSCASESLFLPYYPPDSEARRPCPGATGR

[9] = target: T4, Serine/threonine-protein kinase NLK (Homo sapiens, UniProt Q9UBE8)
T4 sequence (Q9UBE8 whole entry): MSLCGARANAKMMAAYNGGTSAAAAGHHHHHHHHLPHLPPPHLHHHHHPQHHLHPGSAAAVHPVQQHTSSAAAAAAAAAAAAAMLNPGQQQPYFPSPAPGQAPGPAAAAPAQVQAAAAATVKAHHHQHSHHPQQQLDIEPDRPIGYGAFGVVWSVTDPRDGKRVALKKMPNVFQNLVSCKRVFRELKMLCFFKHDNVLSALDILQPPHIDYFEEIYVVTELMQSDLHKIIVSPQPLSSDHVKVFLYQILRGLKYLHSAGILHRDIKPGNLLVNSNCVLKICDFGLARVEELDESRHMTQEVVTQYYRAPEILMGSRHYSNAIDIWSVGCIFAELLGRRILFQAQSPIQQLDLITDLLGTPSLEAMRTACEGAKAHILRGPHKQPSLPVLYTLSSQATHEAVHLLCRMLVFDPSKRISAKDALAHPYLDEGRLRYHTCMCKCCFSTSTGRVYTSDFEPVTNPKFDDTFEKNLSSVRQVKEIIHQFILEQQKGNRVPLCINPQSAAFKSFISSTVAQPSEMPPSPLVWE

[10] = target: T5, Tyrosine--tRNA ligase, cytoplasmic (Homo sapiens, UniProt P54577)
T5 sequence (P54577 whole entry): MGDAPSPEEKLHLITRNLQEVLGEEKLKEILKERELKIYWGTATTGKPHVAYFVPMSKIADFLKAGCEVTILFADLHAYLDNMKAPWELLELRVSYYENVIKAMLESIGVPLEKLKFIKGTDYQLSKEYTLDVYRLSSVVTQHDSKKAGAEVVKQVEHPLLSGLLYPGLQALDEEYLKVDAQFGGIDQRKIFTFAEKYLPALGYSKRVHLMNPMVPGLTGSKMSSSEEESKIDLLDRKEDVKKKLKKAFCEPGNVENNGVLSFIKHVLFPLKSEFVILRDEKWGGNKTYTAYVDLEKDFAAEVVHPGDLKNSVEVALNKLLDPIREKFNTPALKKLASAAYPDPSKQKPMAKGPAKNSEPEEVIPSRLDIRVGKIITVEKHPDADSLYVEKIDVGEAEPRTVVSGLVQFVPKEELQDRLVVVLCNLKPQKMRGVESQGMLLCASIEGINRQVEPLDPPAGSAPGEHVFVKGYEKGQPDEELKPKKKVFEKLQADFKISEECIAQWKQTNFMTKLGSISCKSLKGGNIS
Also: in the data inactive means no Kd found up to 30 µM.

Row | SMILES | Kd [1] | Kd [2] | Kd [3] | Kd [4] | Kd [5] | Kd [6] | Kd [7] | Kd (Ephrin type-A receptor 5) | Kd [8] | Kd [9] | Kd [10]
1 | COCCNCc1ccc(-c2cc3nccc(Oc4ccc(NC(=S)NC(=O)Cc5ccc(F)cc5)cc4F)c3s2)nc1 [GLESATINIB] | > 30 µM (inactive) | 1.49 µM (active) | 1.24 µM (active) | > 30 µM (inactive) | > 30 µM (inactive) | > 30 µM (inactive) | > 30 µM (inactive) | > 30 µM (inactive) | > 30 µM (inactive) | > 30 µM (inactive) | > 30 µM (inactive)
2 | CCn1c(=O)c(-c2cc[nH]n2)cc2c(C)nc(N)nc21 [VOXTALISIB] | > 30 µM (inactive) | > 30 µM (inactive) | > 30 µM (inactive) | > 30 µM (inactive) | > 30 µM (inactive) | > 30 µM (inactive) | > 30 µM (inactive) | > 30 µM (inactive) | > 30 µM (inactive) | > 30 µM (inactive) | > 30 µM (inactive)
3 | COC(=O)[C@@]1(O)C[C@H]2O[C@]1(C)n1c3ccccc3c3c4c(c5c6ccccc6n2c5c31)C(=O)NC4 [K-252A] | > 30 µM (inactive) | 0.287 µM (active) | > 30 µM (inactive) | > 30 µM (inactive) | 3.3 µM (active) | > 30 µM (inactive) | > 30 µM (inactive) | > 30 µM (inactive) | 0.908 µM (active) | > 30 µM (inactive) | > 30 µM (inactive)
4 | CN(C)C(=O)c1cc2cnc(Nc3ccc(N4CCNCC4)cn3)nc2n1C1CCCC1 [RIBOCICLIB] | > 30 µM (inactive) | > 30 µM (inactive) | > 30 µM (inactive) | > 30 µM (inactive) | > 30 µM (inactive) | > 30 µM (inactive) | > 30 µM (inactive) | > 30 µM (inactive) | > 30 µM (inactive) | > 30 µM (inactive) | > 30 µM (inactive)
5 | Cc1cc2c(F)c(Oc3ncnn4cc(OC[C@@H](C)OC(=O)[C@H](C)N)c(C)c34)ccc2[nH]1 [BRIVANIB ALANINATE] | > 30 µM (inactive) | > 30 µM (inactive) | > 30 µM (inactive) | > 30 µM (inactive) | 9.49 µM (active) | > 30 µM (inactive) | > 30 µM (inactive) | > 30 µM (inactive) | > 30 µM (inactive) | > 30 µM (inactive) | > 30 µM (inactive)
6 | Cc1ccc(-n2nc(C(C)(C)C)cc2NC(=O)NCc2cc(F)ccc2Oc2ccc3c(cnn3CCO)c2)cc1 [PEXMETINIB] | > 30 µM (inactive) | 1.66 µM (active) | 2.14 µM | > 30 µM (inactive) | > 30 µM (inactive) | > 30 µM (inactive) | > 30 µM (inactive) | > 30 µM (inactive) | > 30 µM (inactive) | > 30 µM (inactive) | > 30 µM (inactive)

Now from value to molecule:

Row | Kd [1] | Kd [2] | Kd [3] | Kd [4] | Kd [5] | Kd [6] | Kd [7] | Kd (Ephrin type-A receptor 5) | Kd [8] | Kd [9] | Kd [10] | SMILES
7 | > 30 µM (inactive) | > 30 µM (inactive) | > 30 µM (inactive) | > 30 µM (inactive) | > 30 µM (inactive) | > 30 µM (inactive) | > 30 µM (inactive) | > 30 µM (inactive) | > 30 µM (inactive) | > 30 µM (inactive) | > 30 µM (inactive) | Cc1cc([C@@H](C)Nc2ccccc2C(=O)O)c2nc(N3CCOCC3)cc(=O)n2c1 [AZD-6482]
8 | > 30 µM (inactive) | > 30 µM (inactive) | > 30 µM (inactive) | > 30 µM (inactive) | > 30 µM (inactive) | > 30 µM (inactive) | > 30 µM (inactive) | > 30 µM (inactive) | > 30 µM (inactive) | > 30 µM (inactive) | > 30 µM (inactive) | COc1ccc(-c2ccc3c(N4CCOC[C@@H]4C)nc(N4CCOC[C@@H]4C)nc3n2)cc1CO [AZD-8055]
